In PMC4829233, “Identification of Novel Chemical Scaffolds Inhibiting Trypanothione Synthetase from Pathogenic Trypanosomatids” (PLoS Neglected Tropical Diseases, 2016):
Like-named read-outs stand apart in the source and are kept apart here.

Legend:
[1] = molecular target: TcTryS (Trypanosoma cruzi trypanothione synthetase) (Trypanosoma cruzi, UniProt Q9GT49); experiment: biochemical; assay type: biochemical; conditions: for inhibition at 30 µM: read-out: % TcTryS inhibition ± 2σn-1; for remaining activity at 30 µM: read-out: TcTryS Activity ± 2σn-1 (%)
[2] = molecular target: LiTryS (Leishmania infantum trypanothione synthetase) (Leishmania infantum, UniProt A4I2Z3); experiment: biochemical; assay type: biochemical; conditions: for IC50: read-out: LiTryS IC50 (estimated); for activity at 30 µM: read-out: LiTryS Activity ± 2σn-1 (%)
[3] = molecular target: TbTryS (Trypanosoma brucei trypanothione synthetase) (Trypanosoma brucei brucei, UniProt Q8IEX1); experiment: biochemical; conditions: for inhibition at 30 µM: read-out: % TbTryS inhibition ± 2σn-1; for activity at 30 µM: read-out: TbTryS Activity ± 2σn-1 (%)
[4] = tested on: bloodstream Trypanosoma brucei brucei; experiment: Proliferation/cytotoxicity assay, infective T. b. brucei; assay type: cell-based; conditions: bloodstream T. b. brucei, 24 h, read-out: T. b. Brucei EC50

Sequence of TbTryS (Trypanosoma brucei trypanothione synthetase) (Q8IEX1 1-627): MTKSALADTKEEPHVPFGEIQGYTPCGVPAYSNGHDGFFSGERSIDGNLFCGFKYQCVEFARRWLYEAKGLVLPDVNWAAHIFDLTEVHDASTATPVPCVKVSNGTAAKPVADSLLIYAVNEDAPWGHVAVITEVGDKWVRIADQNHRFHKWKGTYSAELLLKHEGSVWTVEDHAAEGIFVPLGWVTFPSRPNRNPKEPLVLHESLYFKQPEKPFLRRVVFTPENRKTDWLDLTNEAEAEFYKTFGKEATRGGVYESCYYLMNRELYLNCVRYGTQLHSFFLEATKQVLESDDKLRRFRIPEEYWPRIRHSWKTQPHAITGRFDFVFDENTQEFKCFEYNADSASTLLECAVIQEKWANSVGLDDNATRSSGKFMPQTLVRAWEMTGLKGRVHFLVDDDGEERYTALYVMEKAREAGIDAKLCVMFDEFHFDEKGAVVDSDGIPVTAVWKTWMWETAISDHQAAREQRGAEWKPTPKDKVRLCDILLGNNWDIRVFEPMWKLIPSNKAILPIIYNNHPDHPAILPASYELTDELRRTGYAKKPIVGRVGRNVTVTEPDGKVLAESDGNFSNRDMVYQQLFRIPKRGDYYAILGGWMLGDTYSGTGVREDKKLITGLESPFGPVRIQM
Sequence of LiTryS (Leishmania infantum trypanothione synthetase) (A4I2Z3 1-652): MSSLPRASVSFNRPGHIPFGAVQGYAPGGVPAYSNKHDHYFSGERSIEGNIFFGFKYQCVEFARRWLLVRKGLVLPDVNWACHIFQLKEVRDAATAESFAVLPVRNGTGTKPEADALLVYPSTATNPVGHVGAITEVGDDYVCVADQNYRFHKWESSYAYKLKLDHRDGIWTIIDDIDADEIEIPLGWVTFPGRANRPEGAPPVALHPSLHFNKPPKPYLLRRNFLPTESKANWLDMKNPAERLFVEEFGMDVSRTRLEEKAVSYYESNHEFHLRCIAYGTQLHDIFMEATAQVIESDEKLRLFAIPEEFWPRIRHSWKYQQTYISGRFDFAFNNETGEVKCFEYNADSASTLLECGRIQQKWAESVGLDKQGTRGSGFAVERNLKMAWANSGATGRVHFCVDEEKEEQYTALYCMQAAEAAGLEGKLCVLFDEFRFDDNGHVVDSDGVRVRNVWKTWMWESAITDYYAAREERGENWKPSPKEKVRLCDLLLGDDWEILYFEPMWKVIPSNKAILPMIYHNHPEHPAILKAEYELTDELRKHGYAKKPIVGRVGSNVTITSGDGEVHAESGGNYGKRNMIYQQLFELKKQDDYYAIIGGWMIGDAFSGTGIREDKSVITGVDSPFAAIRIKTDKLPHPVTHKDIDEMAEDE
Sequence of TcTryS (Trypanosoma cruzi trypanothione synthetase) (Q9GT49 whole entry): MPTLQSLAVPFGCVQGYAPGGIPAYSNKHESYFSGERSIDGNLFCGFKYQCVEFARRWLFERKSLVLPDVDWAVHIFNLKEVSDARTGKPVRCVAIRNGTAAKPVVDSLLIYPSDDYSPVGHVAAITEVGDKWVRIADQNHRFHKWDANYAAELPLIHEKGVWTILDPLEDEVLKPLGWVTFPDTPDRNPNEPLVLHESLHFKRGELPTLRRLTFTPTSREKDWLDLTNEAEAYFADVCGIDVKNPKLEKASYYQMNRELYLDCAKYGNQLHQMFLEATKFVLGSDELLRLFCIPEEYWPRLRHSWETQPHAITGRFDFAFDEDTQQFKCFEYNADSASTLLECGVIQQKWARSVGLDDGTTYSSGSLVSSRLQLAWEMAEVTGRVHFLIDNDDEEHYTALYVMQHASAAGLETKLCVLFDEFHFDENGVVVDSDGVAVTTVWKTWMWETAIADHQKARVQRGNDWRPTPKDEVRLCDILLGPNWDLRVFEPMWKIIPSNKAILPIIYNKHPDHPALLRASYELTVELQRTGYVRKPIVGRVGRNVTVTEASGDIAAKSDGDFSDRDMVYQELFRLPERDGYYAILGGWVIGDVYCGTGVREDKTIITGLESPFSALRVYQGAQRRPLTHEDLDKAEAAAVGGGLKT

| SMILES | TcTryS Activity ± 2σn-1 (%) [1] | LiTryS Activity ± 2σn-1 (%) [2] | TbTryS Activity ± 2σn-1 (%) [3] | also measured |
| --- | --- | --- | --- | --- |
| COc1cc(CNCCCCCCCCCCNCc2ccc(OCc3ccccc3)c(OC)c2)ccc1OCc1ccccc1 [APC1-119] | 101.5 ± 1.9; 4 (1.18) % | 78.1 ± 9.8; 6 (1.219) % | 55.5 ± 1.8. 3 (1.11) % |  |
| O=C(C1=C(O)C(=O)N(c2nc3ccc(Cl)cc3s2)C1c1ccc(O)cc1)c1ccc2c(c1)OCCO2 (stereo not shown) [AD83] | 93.6 ± 4.7; 3 (0.93) % | 83.9 ± 3.8; 4% | 106.9 ± 4.7; 3% |  |
| O=C(C1=C(O)C(=O)N(c2nc3ccc(Cl)cc3s2)C1c1ccccc1)c1ccc2c(c1)OCCO2 (stereo not shown) [ADMRC159] | 97.2 ± 7.8; 2% | 64.1 ± 2.7; 4% | 91.7 ± 6.5; 3% | % LiTryS inhibition ± 2σn-1 [2]: ~35% |
| Cc1ccc2nc(N3C(=O)C(O)=C(C(=O)c4ccc5c(c4)OCCO5)C3c3ccccc3)sc2c1 (stereo not shown) [ADMRC151] | 97.0 ± 5.2; 3% | 83.1 ± 2.3; 3% | 107.7 ± 6.1; 3% |  |
| Cc1ccc(CNCCCCCCCCCCNCc2ccc(C)cc2)cc1 [EAP1-55] | 68.6 ± 3.9; 2% | 71.5 ± 5.8; 4% | 61.8 ± 4.8; 3% |  |
| CC(C)c1ccc(CNCCCCCCCCNCc2ccc(C(C)C)cc2)cc1 [EAP1-37] | 65.6 ± 5.3; 4 (1.46) % | 77.4 ± 7.9; 9 (1.284) % | 56.8 ± 5.6; 3 (1.43) % |  |
| Cc1ccc2nc(N3C(=O)C(O)=C(C(=O)c4ccc5c(c4)OCCO5)C3c3ccc(F)cc3)sc2c1 (stereo not shown) [ADMRC154] | 93.9 ± 2.1; 3% | 64.7 ± 3.7; 4% | 110.3 ± 8.7 ; 12% | % LiTryS inhibition ± 2σn-1 [2]: ~35% |
| Fc1ccc(CNCCCCCCCCCCNCc2ccc(F)cc2)cc1 [EAP1-51] | 87.5 ± 4.6; 4% | 80.6 ± 2.7; 4% | 81.0 ± 7.5; 3% |  |
| c1ccc(COc2ccc(CNCCCCCCCCCCNCc3ccc(OCc4ccccc4)cc3)cc2)cc1 [APC1-117] | 90.8 ± 12.3; 2% | 69.8 ± 6.5; 3% | 71.4 ± 6.1; 4% |  |
| [O-][n+]1onc2cc(Cl)ccc21 [Compound J12] | 63.7 ± 0.5; 4% | 93.8 ± 3.9; 4% | 92.7 ± 2.7; 3% |  |
| c1ccc(COc2ccc(CNCCCCNCc3ccc(OCc4ccccc4)cc3)cc2)cc1 [APC1-87] |  |  |  | inhibition at 30 µM [1]: 26.6 ± 4.1%; remaining activity at 30 µM [1]: 73.4%; IC50 [2]: ~30 µM; inhibition at 30 µM [3]: 37.9 ± 4%; activity at 30 µM [3]: 62.1% |
| CC(C)(C)NC(=O)Nc1ncc2cc(-c3ccc4c(c3)OCO4)c(NC(=O)NC(C)(C)C)nc2n1 [ZEA40] |  |  |  | inhibition at 30 µM [1]: 50%; inhibition at 30 µM ([2]; read-out: % LiTryS inhibition ± 2σn-1): 15.3 ± 8.3%; activity at 30 µM [2]: 84.7%; inhibition at 30 µM [3]: 25.3 ± 5.2%; activity at 30 µM [3]: 74.7% |
| O=C(C1=C(O)C(=O)N(c2nc3ccccc3s2)C1c1ccc(F)cc1)c1ccc2c(c1)OCCO2 (stereo not shown) [ADPKN161] | 90.8 ± 5.8; 4% |  |  | remaining activity at 30 µM [1]: 90.8 ± 5.8%; activity at 30 µM [2]: 83.5 ± 9.2%; activity at 30 µM [3]: 127% |
| Cc1cc2no[n+]([O-])c2cc1C [Compound J11] | 86.4 ± 2.9; 4% | 103.6 ± 10.4; 3% | 88.8 ± 5.8; 4% |  |
| [O-][n+]1onc2ccccc21 [J09/J34] | 102.2 ± 3.3; 3% | 84.9 ± 5.5; 4% | 90.9 ± 5.9; 4% |  |
| Clc1ccc(CNCCCCCCCCCCNCc2ccc(Cl)cc2)cc1 [EAP1-53] | 73.3 ± 2.3; 4% | 69 ± 5.7; 4 (1.305) % | 63.9 ± 4.1; 4 (1.34) % |  |
| COc1ccc2nc(N3C(=O)C(O)=C(C(=O)c4ccc5c(c4)OCCO5)C3c3ccc(O)c(OC)c3)sc2c1 (stereo not shown) [ADMRC156] | 102.2 ± 8.8; 4% | 79.4 ± 4.6; 4% | 108.1 ± 6.5; 3% |  |
| Cc1ccc2nc(N3C(=O)C(O)=C(C(=O)c4ccc5c(c4)OCCO5)C3c3ccc(O)cc3)sc2c1 (stereo not shown) [AD82] | 103.4 ± 6.4; 2% | 86.2 ± 5.8; 4% | 107.7 ± 6.4; 4% |  |
| CC1CS(=O)(=O)CCN1/N=C/c1ccc([N+](=O)[O-])o1 (stereo not shown) [nifurtimox, reference compound] |  |  |  | EC50 [4]: 5 µM |
| Fc1ccc(CNCCCCCCCCNCc2ccc(F)cc2)cc1 [EAP1-39] | 96.0 ± 4.0; 4% | 69.6 ± 5.5; 4% | 85.7 ± 2.0; 3% |  |
| COc1cc(CNCCCCCCCCNCc2ccc(O)c(OC)c2)ccc1O [APC1-122] | 94.5 ± 7.0; 4% | 102.8 ± 8.6; 3% | 91.6 ± 3.6; 3% |  |
| Clc1ccc(CNCCCCCCCCCCCCNCc2ccc(Cl)cc2)cc1 [EAP1-67] | 76.2 ± 6.6; 4 (1.34) % |  | 57.6 ± 1.6; 4 (1.33) % | % TcTryS inhibition ± 2σn-1 [1]: 23.8 ± 6.6%; (1.34); IC50 [2]: ~30 µM; % TbTryS inhibition ± 2σn-1 [3]: 42.4 ± 1.6%; (1.33) |
| COc1ccc(C2C(C(=O)c3ccc4c(c3)OCCO4)=C(O)C(=O)N2c2nc3ccc(C)cc3s2)cc1 (stereo not shown) [AD81] | 109.7 ± 8.9; 4% |  |  | remaining activity at 30 µM [1]: 110 ± 8.9%; activity at 30 µM [2]: 83.9 ± 4.2%; TbTryS Activity ± 2σn-1 (%) ([3]; 30 µM): 128.2 ± 3.6 ; 8 (0.93) %; activity at 30 µM [3]: 128% |
| COc1ccc(C2C(C(=O)c3ccc(OC)c(OC)c3)=C(O)C(=O)N2c2nc3ccc(Cl)cc3s2)cc1 (stereo not shown) [ADPKN163] | 113.6 ± 3.4; 4% | 82.3 ± 7.7; 3% | 88.0 ± 5.0; 4% |  |
| COc1ccc(CNCCCNCc2ccc(OC)cc2)cc1 [APC1-67] |  |  |  | remaining activity at 30 µM [1]: 92.4%; activity at 30 µM [2]: 102%; activity at 30 µM [3]: 71.9% |
| [O-][n+]1onc2cc(F)c(F)cc21 [Compound J40] | 87.4 ± 1.6; 3% | 92.9 ± 5.1; 4% | 85.0 ± 1.4; 2% |  |
| COc1cc(C2C(C(=O)c3ccc4c(c3)OCCO4)=C(O)C(=O)N2c2nc3ccc(Cl)cc3s2)ccc1O (stereo not shown) [ADMRC158] | 97.4 ± 6.1; 4% |  |  | remaining activity at 30 µM [1]: 97.4 ± 6.1%; activity at 30 µM [2]: 85.3 ± 8.7%; TbTryS Activity ± 2σn-1 (%) ([3]; 30 µM): 119.1 ± 4.6; 5 (0.88) %; activity at 30 µM [3]: 119% |
| [O-][n+]1onc2cc(Cl)c(Cl)cc21 [Compound J13] | 84.9 ± 4.4; 3% | 102.2 ± 7.8; 3% | 88.9 ± 2.7; 3% |  |
| COc1ccc(C2C(C(=O)c3ccc4c(c3)OCCO4)=C(O)C(=O)N2c2nc3ccc(OC)cc3s2)cc1 (stereo not shown) [ADPKN160] | 97.6 ± 3.7; 4% |  |  | remaining activity at 30 µM [1]: 97.6 ± 3.7%; activity at 30 µM [2]: 77.9 ± 3.6%; TbTryS Activity ± 2σn-1 (%) ([3]; 30 µM): 116.4 ± 4.2; 4 (0.87) %; activity at 30 µM [3]: 116% |
| c1ccc(CNCCCCCCCCCCCCNCc2ccccc2)cc1 [EAP1-9] | 87.3 ± 5.4; 4% | 89.6 ± 9.4; 3% | 74.9 ± 4.1; 4% |  |
